Laboratory results as given in patent publication US20100226991A1, “SOLID INORGANIC/ORGANIC HYBRID WITH MODIFIED SURFACE” (CENTRE NATIONAL DE LA RECHERCHE SCIENTIFIQUE - CNRS-, priority 2007, published 2010).
In brackets after ≈: the same amount, converted by molar mass.

Experiments:
[1] = system: Female Wistar rats; settings: rat, in vivo
Method: The animals used for the experiment are […] female Wistar rats weighing 161.36±16.1 g.
All the tests were performed in the animal house of the University Pharmacy school under temperature and humidity conditions, and after 3 days of adapting the animals to the animal house (3 days).
For the acute toxicity tests, a single intrajugular injection of the materials MIL-88A (150 and 500 nm), MIL-88Bt (50 and 140 nm) or 5% glucose (control group) is performed on 4 groups (at 1 day, 1 week, 1 month and 3 months, respectively) of 8 rats chosen at random and anesthetized with isoflurane.
The change in weight and the behavior of the animals were monitored. […]
Moreover, each group of animals was sacrificed after 1 day, 1 week, 1 and 3 months, respectively. The animals were anesthetized with isoflurane and the spleen, kidneys, liver and heart were then removed and stored for histological studies. Four livers were also used to perform a microsomal extraction in order to measure the activation of cytochrome P450. […]

[2] = system: Cytochrome P450; parameters: species or system Wistar rats; settings: rat, in vivo
From the text: Moreover, each group of animals was sacrificed after 1 day, 1 week, 1 and 3 months, respectively. The animals were anesthetized with isoflurane and the spleen, kidneys, liver and heart were then removed and stored for histological studies. Four livers were also used to perform a microsomal extraction in order to measure the activation of cytochrome P450.
Cytochrome P450 is an enzyme associated with the […] of the smooth endoplasmic reticulum, which is highly involved in the degradation of exogenous molecules. This enzyme has very low substrate specificity and is capable of catalyzing the transformation of newly synthesized compounds such as medicaments. The majority of the P450 cytochromes can be induced or repressed, at the transcriptional level, by various xenobiotics; this is often the cause of side effects of medicaments. Assaying this enzyme makes it possible to determine whether the MOF material used is metabolized by cytochrome P450, in which case it will activate or inhibit its activity.
The amount of cytochrome can be interpreted only on condition that it has been related to the total amount of protein contained in each sample. Assay of the protein contained in the sample was performed by means of a BCA kit supplied by Pierce (batch #HI106096). […]

[3] = 20° C.; cited from earlier work
[4] = system: rats; settings: cited from earlier work
[5] = Solubility of busulfan in various solvents; type: physicochemical
From the text: The solvents chosen for the impregnation are those in which busulfan has appreciable solubility (acetone, acetonitrile, chloroform, dichloromethane, dimethyl carbonate) (Table 18).

For Fe3O[O2C—C2H2—CO2]3.X.nH2O [MIL-88A], the liver weight [1] was “returns to normal for MIL-88A after 3 months”, the seric iron [1] was “recovered a seric iron concentration comparable to that of the control group” and the “signs of severe toxicity” value [1] was “do not induce any sign of severe toxicity”. The “weight change of the animals” value [1] was “does not produce a significant variation in weight over time” and the “metabolism by cytochrome P450 (cytochrome activity vs glucose control)” value [2] was “not metabolized by Cyp450”.
For COc1cc(O)c(C(=O)c2ccccc2)cc1S(=O)(=O)O [Benzophenone-4, 2-hydroxy-4-methoxybenzophenone-5-sulfonic acid], the solubility in water [3] is given as 100000 µg/mL (≈ 324 mM).
For [Cl][Zr]([Cl])([Cl])[Cl] [ZrCl4], the “oral lethal dose 50 (LD50)” value [4] is given as 1700 mg/kg.
CS(=O)(=O)OCCCCOS(C)(=O)=O [busulfan, 1,4-butanediol dimethylsulfonate] showed a solubility ([5]; acetone, organic solvent or mixture) of 20000 µg/mL, a solubility ([5]; acetonitrile, organic solvent or mixture) of 30000 µg/mL and a solubility ([5]; chloroform, organic solvent or mixture) of 8000 µg/mL. It also gave a solubility ([5]; dichloromethane, organic solvent or mixture) of 10000 µg/mL, a solubility ([5]; dimethyl carbonate, organic solvent or mixture) of 13000 µg/mL and a solubility ([5]; ethanol, organic solvent or mixture) of under 4000 µg/mL. The solubility ([5]; ether, organic solvent or mixture) was under 4000 µg/mL, the solubility ([5]; ethyl acetate, organic solvent or mixture) was 6600 µg/mL and the solubility ([5]; hexane, organic solvent or mixture) was under 4000 µg/mL. The solubility ([5]; methanol, organic solvent or mixture) was under 4000 µg/mL, the solubility ([5]; tetrahydrofuran, organic solvent or mixture) was about 5000 µg/mL and the solubility ([5]; toluene, organic solvent or mixture) was about 4000 µg/mL. It also gave a solubility ([5]; water) of 100 µg/mL.
For “Fe3O[O2C—C6(CH3)4—CO2]3.OH.nH2O [MIL-88Bt]”, the liver weight [1] was “the weight remains high”, the seric iron [1] was “recovered a seric iron concentration comparable to that of the control group” and the “signs of severe toxicity” value [1] was “do not induce any sign of severe toxicity”. For the same compound, the “weight change of the animals” value [1] was “does not produce a significant variation in weight over time” and the “metabolism by cytochrome P450 (cytochrome activity vs glucose control)” value [2] was “does not appear to be metabolized by Cyp450”.
In the case of COc1ccc(C(=O)c2ccccc2)c(O)c1 [Benzophenone-3, 2-hydroxy-4-methoxybenzophenone], the solubility in water [3] is given as 3.7 µg/mL (≈ 0.0162 mM).
